From the supplement of paper PMC10307832

Legend:
Test in all cases: relative viability (nuclei count vs DMSO), 5 days (fraction); higher = more cells survive
Idelalisib + AZD7762 = compound: CC[C@H](Nc1ncnc2[nH]cnc12)c1nc2cccc(F)c2c(=O)n1-c1ccccc1 [Idelalisib] + NC(=O)Nc1cc(-c2cccc(F)c2)sc1C(=O)N[C@H]1CCCNC1 [AZD7762] (partner 0.2 µM)
Summary of the method: (§1)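 A single step with final 0.05% Triton X-100, 1% formaldehyde and 1 ug/ml Hoechst fixed the cells and stained nuclei 5 days after treatment. Lung cancer cell lines in 1536-well plates had been treated by pin tool the day after seeding with one drug alone or a fixed anchor-drug dose plus five library-drug doses (not always all listed) in √10 steps, and nuclei were counted on 4× images. Relative viability is the ratio of nuclei in treated wells to nuclei in vehicle wells, taken as the median of duplicate plates.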

Pemetrexed + AZD7762 = compound: Nc1nc2[nH]cc(CCc3ccc(C(=O)N[C@@H](CCC(=O)O)C(=O)O)cc3)c2c(=O)[nH]1 [Pemetrexed] + NC(=O)Nc1cc(-c2cccc(F)c2)sc1C(=O)N[C@H]1CCCNC1 [AZD7762] (partner 0.2 µM)
Summary of the method: as §1

Idelalisib + Luminespib = compound: CC[C@H](Nc1ncnc2[nH]cnc12)c1nc2cccc(F)c2c(=O)n1-c1ccccc1 [Idelalisib] + CCNC(=O)c1noc(-c2cc(C(C)C)c(O)cc2O)c1-c1ccc(CN2CCOCC2)cc1 [Luminespib] (partner 0.01 µM)
Summary of the method: as §1

Idelalisib + Palbociclib = compound: CC[C@H](Nc1ncnc2[nH]cnc12)c1nc2cccc(F)c2c(=O)n1-c1ccccc1 [Idelalisib] + CC(=O)c1c(C)c2cnc(Nc3ccc(N4CCNCC4)cn3)nc2n(C2CCCC2)c1=O [Palbociclib] (partner 0.5 µM)
Summary of the method: as §1

| Cell Line | relative viability (Idelalisib + AZD7762; first compound 0.04 µM) | relative viability (Idelalisib + AZD7762; first compound 0.1265 µM) | relative viability (Idelalisib + AZD7762; first compound 0.4 µM) | relative viability (Idelalisib + AZD7762; first compound 1.265 µM) | relative viability (Idelalisib + AZD7762; first compound 4 µM) | relative viability (Pemetrexed + AZD7762; first compound 0.002 µM) | relative viability (Pemetrexed + AZD7762; first compound 0.006325 µM) | relative viability (Pemetrexed + AZD7762; first compound 0.02 µM) | relative viability (Pemetrexed + AZD7762; first compound 0.06325 µM) | relative viability (Pemetrexed + AZD7762; first compound 0.2 µM) | relative viability (Idelalisib + Luminespib; first compound 0.04 µM) | relative viability (Idelalisib + Luminespib; first compound 0.1265 µM) | relative viability (Idelalisib + Luminespib; first compound 0.4 µM) | relative viability (Idelalisib + Luminespib; first compound 1.265 µM) | relative viability (Idelalisib + Luminespib; first compound 4 µM) | relative viability (Idelalisib + Palbociclib; first compound 0.04 µM) | relative viability (Idelalisib + Palbociclib; first compound 0.1265 µM) | relative viability (Idelalisib + Palbociclib; first compound 0.4 µM) | relative viability (Idelalisib + Palbociclib; first compound 1.265 µM) | relative viability (Idelalisib + Palbociclib; first compound 4 µM) |
| --- | --- | --- | --- | --- | --- | --- | --- | --- | --- | --- | --- | --- | --- | --- | --- | --- | --- | --- | --- | --- |
| 201T | 0.712 | 0.587 | 0.523 | 0.377 | 0.583 | 0.606 | 0.612 | 0.725 | 0.512 | 0.374 | 1.12 | 1.07 | 1.02 | 1.02 | 0.849 | 0.375 | 0.344 | 0.322 | 0.36 | 0.294 |
| A-427 | 0.773 | 0.748 | 0.66 | 0.442 | 0.624 | 0.798 | 0.708 | 0.818 | 0.755 | 0.733 | 0.833 | 0.857 | 0.744 | 0.879 | 0.783 | 0.558 | 0.542 | 0.491 | 0.559 | 0.505 |
| ABC-1 | 0.904 | 0.738 | 0.783 | 0.729 | 0.864 | 0.907 | 0.847 | 0.856 | 0.732 | 0.726 | 0.466 | 0.643 |  | 0.521 | 0.497 | 0.546 | 0.6 | 0.664 | 0.686 | 0.709 |
| BEN | 0.748 | 0.739 | 0.765 | 0.584 | 0.664 | 0.746 | 0.849 | 0.765 | 0.638 | 0.648 | 0.333 | 0.459 | 0.232 | 0.416 | 0.242 | 0.532 | 0.438 | 0.452 | 0.509 | 0.413 |
| CAL-12T | 0.843 | 0.653 | 0.713 | 0.398 | 0.654 | 0.562 | 0.685 | 0.782 | 0.579 | 0.543 | 0.302 | 0.635 | 0.362 | 0.564 | 0.264 | 0.836 | 0.525 | 0.448 | 0.615 | 0.414 |
| COR-L23 |  |  |  |  |  |  |  |  |  |  | 0.848 | 0.681 | 0.699 | 0.819 | 0.549 | 0.314 | 0.299 | 0.239 | 0.315 | 0.281 |
| COR-L 105 |  |  |  |  |  |  |  |  |  |  | 0.695 | 0.783 | 0.814 | 0.699 | 0.573 | 0.431 | 0.42 | 0.353 | 0.424 | 0.433 |
| ChaGo-K-1 | 0.943 | 0.885 | 0.826 | 0.606 | 0.841 | 0.902 | 0.803 | 0.834 | 0.27 | 0.238 | 0.558 | 0.632 | 0.516 | 0.523 | 0.537 | 0.972 | 0.928 | 0.987 | 0.904 | 0.901 |
| EKVX | 0.706 | 0.698 | 0.596 | 0.558 | 0.64 | 0.589 | 0.645 | 0.636 | 0.549 | 0.654 | 0.703 | 0.916 | 0.723 | 0.804 | 0.814 | 0.362 | 0.373 | 0.358 | 0.325 | 0.298 |
